In PubChem BioAssay (NCI):
“And” between values parts separate entries of the source, which are not always exact repeats. Identical values can stand only once.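 Five concentrations, 48 hours, 96-well plates. Here, GI50 denotes the concentration required for 50% inhibition of growth. TGI marks complete inhibition of growth.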

What was measured:
Assay in all cases: NCI-60 cell line screen, 48 h
SK-MEL-2 melanoma = tested on: SK-MEL-2 melanoma
T-47D breast = tested on: T-47D breast
SNB-19 CNS = tested on: SNB-19 CNS
NCI/ADR-RES ovarian = tested on: NCI/ADR-RES ovarian
SN12C renal = tested on: SN12C renal
M14 melanoma = tested on: M14 melanoma
SK-MEL-5 melanoma = tested on: SK-MEL-5 melanoma
NCI-H23 lung = tested on: NCI-H23 lung
786-0 renal = tested on: 786-0 renal
OVCAR-8 ovarian = tested on: OVCAR-8 ovarian

Compound | GI50 (SK-MEL-2 melanoma) | TGI (SK-MEL-2 melanoma) | GI50 (T-47D breast) | TGI (T-47D breast) | GI50 (SNB-19 CNS) | TGI (SNB-19 CNS) | GI50 (NCI/ADR-RES ovarian) | TGI (NCI/ADR-RES ovarian) | GI50 (SN12C renal) | TGI (SN12C renal) | GI50 (M14 melanoma) | TGI (M14 melanoma) | GI50 (SK-MEL-5 melanoma) | TGI (SK-MEL-5 melanoma) | GI50 (NCI-H23 lung) | TGI (NCI-H23 lung) | GI50 (786-0 renal) | TGI (786-0 renal) | GI50 (OVCAR-8 ovarian) | TGI (OVCAR-8 ovarian)
COc1cc(Nc2ncc3c(n2)-c2ccc(Cl)cc2C(c2c(F)cccc2OC)=NC3)ccc1C(=O)O | 13.4 µM | 38 µM | 12.1 µM | > 91.2 µM | 13.3 µM | > 100 µM | 1.38 µM | > 100 µM | 4.04 µM | > 90.4 µM | 13.6 µM | 42.8 µM | 12.3 µM | 29.1 µM | 10.9 µM | 65.1 µM | 4.4 µM | > 83.6 µM | 8.94 µM | > 100 µM
CC1=C[C@H]2c3c(c(O)c(O)c4oc5cc(O)cc(O)c5c(=O)c34)[C@H](c3cc(O)c(O)c4oc5cc(O)cc(O)c5c(=O)c34)[C@H]2C(C)(C)C1 | 2.41 µM | 5.17 µM and 6.41 µM | 2.78 µM | 26 µM | 1.33 µM and 1.3 µM | 3.31 µM and 4.93 µM | 8.48 µM and 3.63 µM | 34.9 µM and 25.4 µM | 1.84 µM and 2.11 µM | 6.88 µM and 8.24 µM | 1.59 µM and 1.62 µM | 5.19 µM and 4.93 µM | 1.53 µM and 1.43 µM | 2.89 µM and 2.84 µM | 1.04 µM and 1.21 µM | 2.95 µM and 3.39 µM | 2.43 µM and 2.16 µM | 6.66 µM and 6.33 µM | 2.38 µM and 3.39 µM | 
COc1cc(C/C=C/c2ccccc2)c(OC)cc1O |  | 52.3 µM |  | 35.3 µM |  | > 100 µM |  | 72 µM |  | 34.5 µM |  | 46.4 µM |  | 62.3 µM |  | 42.8 µM |  | 27.7 µM |  | 37 µM
O=C(Cc1ccccc1)Nc1nnc(CCSCCc2nnc(NC(=O)Cc3ccccc3)s2)s1 | 16.5 µM | > 100 µM | 8.13 µM | > 100 µM | 11.2 µM | 33.3 µM | > 100 µM | > 100 µM | 5.34 µM | 44.7 µM | 12.6 µM | > 100 µM | 58 µM | > 100 µM | 28.8 µM | > 100 µM | 6.11 µM | 54.6 µM | 6.12 µM | > 100 µM
O=C1CC(c2ccccc2)Cc2nc3ccc(Cl)cc3cc21 (centres undefined) | 0.207 µM | > 100 µM | 6.17 µM | > 89 µM | 0.462 µM | > 100 µM | 0.0586 µM | 5.21 µM | 0.518 µM | > 84.9 µM | 0.0356 µM | 23.8 µM | 0.309 µM | 2.37 µM | 0.562 µM | > 100 µM | 0.815 µM | > 74.7 µM | 0.386 µM | > 100 µM
Cc1cc(N(CCCNc2ccnc3cc(Cl)ccc23)Cc2cccs2)nc(Cl)n1 | 12.3 µM | 29.6 µM | 1.99 µM | 20.6 µM | 7.58 µM | 25.4 µM | 2.64 µM | 28.5 µM | 5.91 µM | 23.9 µM | 1.81 µM | 4.54 µM | 1.45 µM | 3.15 µM | 1.3 µM | 16.7 µM | 5.48 µM | 20.6 µM | 4.83 µM | 34.9 µM
O=C(CCCn1ccnc1[N+](=O)[O-])NCCn1cnc([N+](=O)[O-])c1 |  | > 100 µM |  | > 100 µM |  | > 100 µM |  | > 100 µM |  | > 100 µM |  | > 100 µM |  | > 100 µM |  | > 100 µM |  | > 100 µM |  | > 100 µM
C[C@@H]1CN(Cc2ccc(/C=C/c3n[nH]c4ccc5nc(-c6cn[nH]c6C(F)(F)F)c6c(c5c34)CCCC6)cc2)C[C@H](C)O1 | 13.5 µM | 33.8 µM | 6.66 µM | 26.4 µM | 10.2 µM | 22.1 µM | 4.76 µM | 19.9 µM | 2.46 µM | 14.9 µM | 3.19 µM | 14.6 µM | 12.2 µM | 24.7 µM | 5.71 µM | 21.7 µM | 4.09 µM | 17.5 µM | 4.76 µM | 23.1 µM
Cc1sc2nc(-c3ccccn3)c(/C=N/N=C(N)N)n2c1C | 7.99 µM | 21.4 µM | 3.93 µM | 10.2 µM | 7.52 µM | 19.5 µM | > 21.9 µM | > 40 µM | 14.4 µM | 28.9 µM | 7.28 µM | 12.1 µM | 3.58 µM | 8.13 µM | 6.37 µM | 15.3 µM | 4.84 µM | 12.6 µM | 6.65 µM | 68.1 µM
